Data taken from US20190388513A1, “OIL BASED FORMULATIONS FOR SUBLINGUAL AND BUCCAL DELIVERY” (BIOLINGUS IP LLC, priority 2017, published 2019).
Blank lines part the entries; values can stand above or below the compound they belong to.

Tests used:
[1] = Sublingual resveratrol: plasma resveratrol levels (Cmax, AUC) in rats, LC-MS/MS (Example 7); format: in vivo; details: sublingual 10 mg in oil formulation (CSSR6d) versus oral 10 mg in sugar syrup, SD rats, up to 24 hours
Method: Resveratrol was suspended in 50% sugar solution and the mixture spun until homogenous for oral ingestion. Two groups of each three SD rats were treated. The treatment groups were administered as follows: 1) sublingual resveratrol in oil formulation (Group 1: SL-resveratrol 10 mg in oil formulation); 2) oral administered resveratrol in sugar syrup (Group 2: OP resveratrol 10 mg in sugar syrup). Nine blood sampling time points up to 24 hours post dosing per anima […]. Plasma samples bio analysis was performed with LC-MS/MS method.

diabetic mice [2] = assay: Sublingual insulin glargine study, solid dosage formulation: blood glucose in diabetic mice (Example 2); format: in vivo, mice (strain C57/BL6); details: sublingual insulin glargine 10 or 50 IU/kg absorbed on solid dosage formulation, versus SC insulin glargine 1 IU/kg
Method: One solid dosage formulation was placed underneath the tongue of anesthetised diabetic mice. Blood glucose was measured at 0 h, 1 h, 2 h, 4 h, 8 h, 20 h and 24 h.
Four groups of five mice were treated. The treatment groups were administered as follows: 1) sublingual solid dosage formulation placebo (Group 1: SL-CSSR 4; wherein “CSSR-4” means a solid formulation containing vitamin E, PEG 200 and flavouring oils). 2) 1 IU/kg subcutaneously administered insulin glargine (Group 2: SC-Insulin glargine 1 IU/kg); 3) 10 IU/kg sublingually administered insulin glargine (Group 3: SL-Insulin glargine 10 IU/kg); and 4) 50 IU/kg sublingually administered insulin glargine (Group 4: SL-Insulin glargine 50 IU/kg). For animal studies using solid formulations, tablets were dissolved in water to form a gel. The gel was then placed under the tongue of the mice instead of the tablet.

diabetic mice [3] = assay: Sublingual insulin aspart study: blood glucose in diabetic mice (Example 1); format: in vivo, mice (strain C57/BL6); details: sublingual 100 U/kg insulin aspart in TPMCEu oil, without exenatide, versus SC insulin aspart 1 IU/kg
Method: For the experiments described below, mice of approximately 60 g were used. 5 μL of the resulting oil mixture comprising Insulin Aspart was placed underneath the tongue of anesthetised diabetic mice. […] Five groups of five mice were treated. […] These were compared to 4) 1 IU/kg subcutaneously administered insulin aspart (SC-Insulin aspart) and 5) sublingual oil placebo ([…]).

Absorbability relative to orally administered resveratrol (Cmax and AUC of blood resveratrol levels) [1]: 20 to 40 times
Compound: Oc1ccc(C=Cc2cc(O)cc(O)c2)cc1 [resveratrol]

Compound: insulin glargine
Blood glucose levels 0-24 h, compared with subcutaneous delivery (diabetic mice [2]): comparable to subcutaneous delivery of insulin glargine

Compound: insulin aspart
Blood glucose levels / AUC0-240min, compared with subcutaneous delivery (diabetic mice [3]): comparable to subcutaneous delivery of insulin aspart
